{"source": "patent US10080739B2", "about": "“Aryl imidazoles and their use as anti-cancer agents” (Aptose Biosciences Inc., priority 2003, dated 2018)", "key": {"Rse": {"target": "T1, Rse (Homo sapiens, UniProt Q06418)", "T1 construct": "purchased Upstate Biotechnologies (kinase profiler service)", "assay": "kinase profiler, Rse", "format": "biochemical", "settings": "10 μM compound, 100 μM ATP, mean of % control", "method": "(§1) Compound 45 was tested for its ability to function as a kinase inhibitor using the kinase profiler service from Upstate Biotechnologies. The general protocol employed is as follows: recombinant kinases were incubated with specific substrates, 10 mM MgAcetate, and [γ-^33P-ATP]. The reaction was initiated by the addition of MgATP mix. After incubation at room temperature for 40 minutes, the reaction was stopped by the addition of 5 μl of a 3% phosphoric acid solution. 10 μl of the reaction was then spotted on to a P30 filtermat and washed 3 times for 5 min. in 75 mM phosphoric acid and once in methanol prior to drying and scintillation counting. Each reaction was performed in duplicate with 100 μM ATP −/+10 μM compound 45. Results are presented in Table IV and are expressed as the mean of % control (no compound). PI 3-kinase-γ (PI3K-γ) activity was determined with the PIProfiler™ assay, which measures the binding of the GRP1 pleckstrin homology (PH) domain to PIP3, the product of PI3K acting on its physiological substrate PIP2."}, "PKD2": {"target": "T2, PKD2 (Homo sapiens, UniProt Q9BZL6)", "T2 construct": "purchased Upstate Biotechnologies (kinase profiler service)", "assay": "kinase profiler, PKD2", "format": "biochemical", "settings": "10 μM compound, 100 μM ATP, mean of % control", "method": "as §1"}, "Yes": {"target": "T3, Yes (Homo sapiens, UniProt P07947)", "T3 construct": "purchased Upstate Biotechnologies (kinase profiler service)", "assay": "kinase profiler, Yes", "format": "biochemical", "settings": "10 μM compound, 100 μM ATP, mean of % control", "method": "as §1"}, "Lyn": {"target": "T4, Lyn (Homo sapiens, UniProt P07948)", "T4 construct": "purchased Upstate Biotechnologies (kinase profiler service)", "assay": "kinase profiler, Lyn", "format": "biochemical", "settings": "10 μM compound, 100 μM ATP, mean of % control", "method": "as §1"}, "PAR-1Bα": {"target": "T5, PAR-1Bα (Homo sapiens, UniProt Q7KZI7)", "T5 construct": "purchased Upstate Biotechnologies (kinase profiler service)", "assay": "kinase profiler, PAR-1Bα", "format": "biochemical", "settings": "10 μM compound, 100 μM ATP, mean of % control", "method": "as §1"}, "MKK4": {"target": "T6, MKK4 (Mus musculus, UniProt P47809)", "T6 construct": "purchased Upstate Biotechnologies (kinase profiler service)", "assay": "kinase profiler, MKK4", "format": "biochemical, human", "settings": "10 μM compound, 100 μM ATP, mean of % control", "method": "as §1"}, "IKKβ": {"target": "T7, IKKβ (Homo sapiens, UniProt O14920)", "T7 construct": "purchased Upstate Biotechnologies (kinase profiler service)", "assay": "kinase profiler, IKKβ", "format": "biochemical", "settings": "10 μM compound, 100 μM ATP, mean of % control", "method": "as §1"}, "Pim-1": {"target": "T8, Pim-1 (Homo sapiens, UniProt P11309)", "T8 construct": "purchased Upstate Biotechnologies (kinase profiler service)", "T8 sequence (P11309 whole entry)": "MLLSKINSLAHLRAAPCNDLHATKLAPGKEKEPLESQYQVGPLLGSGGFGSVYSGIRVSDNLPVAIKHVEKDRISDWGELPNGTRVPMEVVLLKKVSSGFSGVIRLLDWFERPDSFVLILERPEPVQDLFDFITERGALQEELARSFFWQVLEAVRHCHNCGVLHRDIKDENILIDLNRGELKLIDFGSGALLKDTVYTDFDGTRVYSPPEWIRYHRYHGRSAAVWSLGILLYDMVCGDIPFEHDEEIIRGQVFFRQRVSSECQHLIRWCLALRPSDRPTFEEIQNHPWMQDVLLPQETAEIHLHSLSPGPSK", "assay": "kinase profiler, Pim-1", "format": "biochemical", "settings": "10 μM compound, 100 μM ATP, mean of % control", "method": "as §1"}, "CDK1/cyclinB": {"target": "T9, CDK1/cyclinB (Homo sapiens, UniProt P06493)", "T9 construct": "purchased Upstate Biotechnologies (kinase profiler service)", "assay": "kinase profiler, CDK1/cyclinB", "format": "biochemical", "settings": "10 μM compound, 100 μM ATP, mean of % control", "method": "as §1"}, "SAPK4": {"target": "T10, SAPK4 (Homo sapiens, UniProt O15264)", "T10 construct": "purchased Upstate Biotechnologies (kinase profiler service)", "assay": "kinase profiler, SAPK4", "format": "biochemical", "settings": "10 μM compound, 100 μM ATP, mean of % control", "method": "as §1"}, "GSK3α": {"target": "T11, GSK3α (Homo sapiens, UniProt P49840)", "T11 construct": "purchased Upstate Biotechnologies (kinase profiler service)", "T11 sequence (P49840 whole entry)": "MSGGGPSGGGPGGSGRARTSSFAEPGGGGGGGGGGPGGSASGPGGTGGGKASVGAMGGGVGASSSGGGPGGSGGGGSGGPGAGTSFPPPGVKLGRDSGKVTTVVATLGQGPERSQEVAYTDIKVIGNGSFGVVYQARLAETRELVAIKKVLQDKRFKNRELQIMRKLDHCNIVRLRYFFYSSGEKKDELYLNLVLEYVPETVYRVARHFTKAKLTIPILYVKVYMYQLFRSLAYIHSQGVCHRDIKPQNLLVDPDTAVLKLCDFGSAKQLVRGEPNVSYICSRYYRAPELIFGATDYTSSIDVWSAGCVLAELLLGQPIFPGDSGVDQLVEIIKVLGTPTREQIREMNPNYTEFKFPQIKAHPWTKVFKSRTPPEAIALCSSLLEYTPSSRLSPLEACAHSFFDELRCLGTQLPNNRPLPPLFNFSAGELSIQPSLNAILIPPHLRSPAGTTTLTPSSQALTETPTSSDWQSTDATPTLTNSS", "assay": "kinase profiler, GSK3α", "format": "biochemical", "settings": "10 μM compound, 100 μM ATP, mean of % control", "method": "as §1"}, "ALK": {"target": "T12, ALK (Homo sapiens, UniProt Q9UM73)", "T12 construct": "purchased Upstate Biotechnologies (kinase profiler service)", "assay": "kinase profiler, ALK", "format": "biochemical", "settings": "10 μM compound, 100 μM ATP, mean of % control", "method": "as §1"}, "PDK1": {"target": "T13, PDK1 (Homo sapiens, UniProt O15530)", "T13 construct": "purchased Upstate Biotechnologies (kinase profiler service)", "T13 sequence (O15530 whole entry)": "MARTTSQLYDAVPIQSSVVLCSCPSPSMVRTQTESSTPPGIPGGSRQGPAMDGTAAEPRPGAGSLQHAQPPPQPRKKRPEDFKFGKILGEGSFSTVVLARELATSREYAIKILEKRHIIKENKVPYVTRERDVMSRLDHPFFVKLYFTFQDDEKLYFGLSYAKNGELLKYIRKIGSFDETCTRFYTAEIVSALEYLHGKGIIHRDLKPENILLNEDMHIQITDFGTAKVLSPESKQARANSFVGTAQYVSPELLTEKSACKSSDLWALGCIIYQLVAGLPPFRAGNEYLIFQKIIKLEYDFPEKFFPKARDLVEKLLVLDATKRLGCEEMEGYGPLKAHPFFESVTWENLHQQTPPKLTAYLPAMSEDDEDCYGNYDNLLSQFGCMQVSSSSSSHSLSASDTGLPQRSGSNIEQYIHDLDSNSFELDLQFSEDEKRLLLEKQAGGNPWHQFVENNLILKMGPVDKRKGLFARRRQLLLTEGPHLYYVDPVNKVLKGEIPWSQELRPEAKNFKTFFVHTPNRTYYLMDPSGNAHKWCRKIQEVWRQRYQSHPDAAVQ", "assay": "kinase profiler, PDK1", "format": "biochemical", "settings": "10 μM compound, 100 μM ATP, mean of % control", "method": "as §1"}, "MEK1": {"target": "T14, MEK1 (Homo sapiens, UniProt Q02750)", "T14 construct": "purchased Upstate Biotechnologies (kinase profiler service)", "T14 sequence (Q02750 whole entry)": "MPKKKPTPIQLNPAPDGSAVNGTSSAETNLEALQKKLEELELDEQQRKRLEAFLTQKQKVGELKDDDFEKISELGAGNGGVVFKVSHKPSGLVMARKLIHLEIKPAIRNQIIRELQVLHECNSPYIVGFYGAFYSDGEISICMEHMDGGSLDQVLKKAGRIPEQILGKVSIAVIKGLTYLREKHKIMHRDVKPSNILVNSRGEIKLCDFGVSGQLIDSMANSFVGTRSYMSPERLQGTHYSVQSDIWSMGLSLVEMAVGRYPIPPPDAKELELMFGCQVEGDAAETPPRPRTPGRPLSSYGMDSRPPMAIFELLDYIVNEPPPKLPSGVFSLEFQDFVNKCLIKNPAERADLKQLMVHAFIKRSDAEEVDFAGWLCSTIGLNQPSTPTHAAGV", "assay": "kinase profiler, MEK1", "format": "biochemical", "settings": "10 μM compound, 100 μM ATP, mean of % control", "method": "as §1"}, "ErbB4": {"target": "T15, ErbB4 (Homo sapiens, UniProt Q15303)", "T15 construct": "purchased Upstate Biotechnologies (kinase profiler service)", "T15 sequence (Q15303 26-1308)": "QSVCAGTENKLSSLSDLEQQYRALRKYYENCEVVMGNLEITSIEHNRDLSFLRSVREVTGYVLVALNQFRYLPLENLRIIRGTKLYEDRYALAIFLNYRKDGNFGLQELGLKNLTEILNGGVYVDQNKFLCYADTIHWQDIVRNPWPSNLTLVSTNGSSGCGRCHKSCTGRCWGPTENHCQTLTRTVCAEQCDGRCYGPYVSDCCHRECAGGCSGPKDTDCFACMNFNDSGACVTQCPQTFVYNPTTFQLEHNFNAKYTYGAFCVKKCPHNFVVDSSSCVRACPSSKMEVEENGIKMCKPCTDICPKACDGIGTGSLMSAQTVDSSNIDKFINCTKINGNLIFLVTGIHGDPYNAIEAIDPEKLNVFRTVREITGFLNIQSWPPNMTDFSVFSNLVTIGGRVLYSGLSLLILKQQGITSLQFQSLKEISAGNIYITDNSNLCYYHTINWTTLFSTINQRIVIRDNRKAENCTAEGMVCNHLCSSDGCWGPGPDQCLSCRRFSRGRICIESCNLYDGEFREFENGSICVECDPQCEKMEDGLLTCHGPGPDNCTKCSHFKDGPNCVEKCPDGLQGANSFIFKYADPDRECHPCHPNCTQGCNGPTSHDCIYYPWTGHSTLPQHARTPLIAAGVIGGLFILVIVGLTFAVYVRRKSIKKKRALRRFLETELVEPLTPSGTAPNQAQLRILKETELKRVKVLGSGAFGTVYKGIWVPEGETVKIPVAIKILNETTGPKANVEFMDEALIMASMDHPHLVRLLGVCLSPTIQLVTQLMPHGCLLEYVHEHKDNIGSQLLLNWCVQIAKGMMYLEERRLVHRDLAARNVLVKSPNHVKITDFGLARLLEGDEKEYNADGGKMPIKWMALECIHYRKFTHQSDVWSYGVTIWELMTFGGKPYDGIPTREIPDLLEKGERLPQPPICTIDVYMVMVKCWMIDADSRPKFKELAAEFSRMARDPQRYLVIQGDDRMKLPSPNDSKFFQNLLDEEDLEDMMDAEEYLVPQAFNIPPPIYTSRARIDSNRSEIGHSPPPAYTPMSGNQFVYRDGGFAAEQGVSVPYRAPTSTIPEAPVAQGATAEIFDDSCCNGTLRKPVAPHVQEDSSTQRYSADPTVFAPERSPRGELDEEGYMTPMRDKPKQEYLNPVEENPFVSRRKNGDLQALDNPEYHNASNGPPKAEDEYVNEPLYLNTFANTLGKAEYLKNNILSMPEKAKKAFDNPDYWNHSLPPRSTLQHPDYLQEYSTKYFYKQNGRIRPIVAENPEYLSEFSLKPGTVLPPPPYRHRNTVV", "assay": "kinase profiler, ErbB4", "format": "biochemical", "settings": "10 μM compound, 100 μM ATP, mean of % control", "method": "as §1"}, "Tie2": {"target": "T16, Tie2 (Homo sapiens, UniProt Q02763)", "T16 construct": "purchased Upstate Biotechnologies (kinase profiler service)", "assay": "kinase profiler, Tie2", "format": "biochemical", "settings": "10 μM compound, 100 μM ATP, mean of % control", "method": "as §1"}, "Ret": {"target": "T17, Ret (Homo sapiens, UniProt P07949)", "T17 construct": "purchased Upstate Biotechnologies (kinase profiler service)", "assay": "kinase profiler, Ret", "format": "biochemical", "settings": "10 μM compound, 100 μM ATP, mean of % control", "method": "as §1"}, "PAK2": {"target": "T18, PAK2 (Homo sapiens, UniProt Q13177)", "T18 construct": "purchased Upstate Biotechnologies (kinase profiler service)", "T18 sequence (Q13177 whole entry)": "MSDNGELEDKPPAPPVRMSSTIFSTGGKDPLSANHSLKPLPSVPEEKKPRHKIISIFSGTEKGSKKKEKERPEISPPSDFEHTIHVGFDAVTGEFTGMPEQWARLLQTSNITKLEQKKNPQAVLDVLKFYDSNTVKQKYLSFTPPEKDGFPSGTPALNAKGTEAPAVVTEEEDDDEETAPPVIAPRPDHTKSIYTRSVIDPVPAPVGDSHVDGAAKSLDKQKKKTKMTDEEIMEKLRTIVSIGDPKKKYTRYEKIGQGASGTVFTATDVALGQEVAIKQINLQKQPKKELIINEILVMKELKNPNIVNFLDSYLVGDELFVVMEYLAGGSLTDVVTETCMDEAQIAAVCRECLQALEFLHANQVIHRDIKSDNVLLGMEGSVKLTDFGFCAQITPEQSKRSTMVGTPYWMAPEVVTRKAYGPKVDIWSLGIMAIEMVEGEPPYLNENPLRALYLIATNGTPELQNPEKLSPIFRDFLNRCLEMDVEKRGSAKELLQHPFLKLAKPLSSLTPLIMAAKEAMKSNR", "assay": "kinase profiler, PAK2", "format": "biochemical", "settings": "10 μM compound, 100 μM ATP, mean of % control", "method": "as §1"}, "CDK2/cyclinE": {"target": "T19, CDK2/cyclinE (Homo sapiens, UniProt P24941)", "T19 construct": "purchased Upstate Biotechnologies (kinase profiler service)", "assay": "kinase profiler, CDK2/cyclinE", "format": "biochemical", "settings": "10 μM compound, 100 μM ATP, mean of % control", "method": "as §1"}, "Fyn": {"target": "T20, Fyn (Homo sapiens, UniProt P06241)", "T20 construct": "purchased Upstate Biotechnologies (kinase profiler service)", "assay": "kinase profiler, Fyn", "format": "biochemical", "settings": "10 μM compound, 100 μM ATP, mean of % control", "method": "as §1"}, "MINK": {"target": "T21, MINK (Homo sapiens, UniProt Q8N4C8)", "T21 construct": "purchased Upstate Biotechnologies (kinase profiler service)", "T21 sequence (Q8N4C8 whole entry)": "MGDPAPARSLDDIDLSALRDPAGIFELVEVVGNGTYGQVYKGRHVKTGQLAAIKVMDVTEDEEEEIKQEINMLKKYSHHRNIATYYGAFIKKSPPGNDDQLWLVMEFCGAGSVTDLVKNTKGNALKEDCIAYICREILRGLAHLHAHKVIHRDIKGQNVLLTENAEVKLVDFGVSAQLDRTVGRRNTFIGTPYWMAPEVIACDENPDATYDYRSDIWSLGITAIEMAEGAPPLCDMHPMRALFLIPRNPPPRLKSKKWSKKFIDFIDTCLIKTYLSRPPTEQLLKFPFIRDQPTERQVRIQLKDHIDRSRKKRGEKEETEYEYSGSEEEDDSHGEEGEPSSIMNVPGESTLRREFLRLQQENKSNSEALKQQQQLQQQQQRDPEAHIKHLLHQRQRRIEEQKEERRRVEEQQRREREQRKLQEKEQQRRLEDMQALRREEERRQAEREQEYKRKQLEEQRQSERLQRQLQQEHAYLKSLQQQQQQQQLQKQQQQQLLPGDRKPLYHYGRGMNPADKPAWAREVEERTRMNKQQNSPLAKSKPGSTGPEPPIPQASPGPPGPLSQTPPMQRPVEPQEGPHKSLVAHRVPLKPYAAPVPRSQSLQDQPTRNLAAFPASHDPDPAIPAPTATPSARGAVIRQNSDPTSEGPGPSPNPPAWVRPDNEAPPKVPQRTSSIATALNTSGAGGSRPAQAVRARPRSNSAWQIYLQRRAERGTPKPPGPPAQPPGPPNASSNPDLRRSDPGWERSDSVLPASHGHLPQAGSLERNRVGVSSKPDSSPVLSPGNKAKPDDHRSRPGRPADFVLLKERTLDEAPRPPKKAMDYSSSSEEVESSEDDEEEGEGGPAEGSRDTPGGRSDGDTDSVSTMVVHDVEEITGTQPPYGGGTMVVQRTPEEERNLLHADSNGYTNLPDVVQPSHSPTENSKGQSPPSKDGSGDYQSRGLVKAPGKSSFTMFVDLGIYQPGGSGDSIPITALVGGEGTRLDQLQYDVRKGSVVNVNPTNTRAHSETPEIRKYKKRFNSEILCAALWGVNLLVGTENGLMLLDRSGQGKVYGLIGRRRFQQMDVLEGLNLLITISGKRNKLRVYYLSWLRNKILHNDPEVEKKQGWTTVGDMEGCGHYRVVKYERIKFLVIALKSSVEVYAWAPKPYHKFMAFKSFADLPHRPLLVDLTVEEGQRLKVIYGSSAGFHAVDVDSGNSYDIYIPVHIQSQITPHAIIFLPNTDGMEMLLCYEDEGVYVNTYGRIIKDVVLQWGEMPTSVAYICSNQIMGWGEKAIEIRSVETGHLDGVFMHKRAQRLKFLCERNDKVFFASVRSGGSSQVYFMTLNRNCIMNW", "assay": "kinase profiler, MINK", "format": "biochemical", "settings": "10 μM compound, 100 μM ATP, mean of % control", "method": "as §1"}, "Ax1": {"target": "T22, Ax1 (Homo sapiens, UniProt P30530)", "T22 construct": "purchased Upstate Biotechnologies (kinase profiler service)", "assay": "kinase profiler, Ax1", "format": "biochemical", "settings": "10 μM compound, 100 μM ATP, mean of % control", "method": "as §1"}, "SAPK2a": {"target": "T23, SAPK2a (Homo sapiens, UniProt Q16539)", "T23 construct": "purchased Upstate Biotechnologies (kinase profiler service)", "assay": "kinase profiler, SAPK2a", "format": "biochemical", "settings": "10 μM compound, 100 μM ATP, mean of % control", "method": "as §1"}, "EphB4": {"target": "T24, EphB4 (Homo sapiens, UniProt P54760)", "T24 construct": "purchased Upstate Biotechnologies (kinase profiler service)", "assay": "kinase profiler, EphB4", "format": "biochemical", "settings": "10 μM compound, 100 μM ATP, mean of % control", "method": "as §1"}, "CDK3/cyclinE": {"target": "T25, CDK3/cyclinE (Homo sapiens, UniProt Q00526)", "T25 construct": "purchased Upstate Biotechnologies (kinase profiler service)", "assay": "kinase profiler, CDK3/cyclinE", "format": "biochemical", "settings": "10 μM compound, 100 μM ATP, mean of % control", "method": "as §1"}, "PI 3-kinase-γ (PI3K-γ)": {"target": "T26, PI 3-kinase-γ (PI3K-γ) (Homo sapiens, UniProt P48736)", "T26 construct": "purchased Upstate Biotechnologies (kinase profiler / PIProfiler service)", "assay": "PIProfiler assay, PI3K-γ", "format": "biochemical", "settings": "PI3K[…] (PI3Kγ), 10 μM compound, mean of % control", "method": "as §1"}, "JNK1α1": {"target": "T27, JNK1α1 (Homo sapiens, UniProt P45983)", "T27 construct": "purchased Upstate Biotechnologies (kinase profiler service)", "assay": "kinase profiler, JNK1α1", "format": "biochemical", "settings": "10 μM compound, 100 μM ATP, mean of % control", "method": "as §1"}, "CDK6/cyclinD3": {"target": "T28, CDK6/cyclinD3 (Homo sapiens, UniProt Q00534)", "T28 construct": "purchased Upstate Biotechnologies (kinase profiler service)", "assay": "kinase profiler, CDK6/cyclinD3", "format": "biochemical", "settings": "10 μM compound, 100 μM ATP, mean of % control", "method": "as §1"}, "PKCα": {"target": "T29, PKCα (Homo sapiens, UniProt P17252)", "T29 construct": "purchased Upstate Biotechnologies (kinase profiler service)", "assay": "kinase profiler, PKCα", "format": "biochemical", "settings": "10 μM compound, 100 μM ATP, mean of % control", "method": "as §1"}, "PKCζ": {"target": "T30, PKCζ (Homo sapiens, UniProt Q05513)", "T30 construct": "purchased Upstate Biotechnologies (kinase profiler service)", "assay": "kinase profiler, PKCζ", "format": "biochemical", "settings": "10 μM compound, 100 μM ATP, mean of % control", "method": "as §1"}, "PI3K-α": {"target": "T31, PI3K-α (Homo sapiens, UniProt P42336)", "T31 construct": "purchased Upstate Biotechnologies (kinase profiler service)", "assay": "kinase profiler, PI3K-α", "format": "biochemical", "settings": "10 μM compound, mean of % control"}}, "data": [{"smiles": "Brc1ccc2[nH]cc(-c3nc4c5ccccc5c5ccccc5c4[nH]3)c2c1", "note": "[Compound 45]", "values": [{"measurement": "activity at 10 µM", "setting": "Rse", "result": 176, "unit": "%"}, {"measurement": "activity at 10 µM", "setting": "PKD2", "result": 52, "unit": "%"}, {"measurement": "activity at 10 µM", "setting": "Yes", "result": 91, "unit": "%"}, {"measurement": "activity at 10 µM", "setting": "Lyn", "result": 81, "unit": "%"}, {"measurement": "activity at 10 µM", "setting": "PAR-1Bα", "result": 88, "unit": "%"}, {"measurement": "activity at 10 µM", "setting": "MKK4", "result": 96, "unit": "%"}, {"measurement": "activity at 10 µM", "setting": "IKKβ", "result": 111, "unit": "%"}, {"measurement": "activity at 10 µM", "setting": "Pim-1", "result": 70, "unit": "%"}, {"measurement": "activity at 10 µM", "setting": "CDK1/cyclinB", "result": 156, "unit": "%"}, {"measurement": "activity at 10 µM", "setting": "SAPK4", "result": 77, "unit": "%"}, {"measurement": "activity at 10 µM", "setting": "GSK3α", "result": 96, "unit": "%"}, {"measurement": "activity at 10 µM", "setting": "ALK", "result": 60, "unit": "%"}, {"measurement": "activity at 10 µM", "setting": "PDK1", "result": 106, "unit": "%"}, {"measurement": "activity at 10 µM", "setting": "MEK1", "result": 88, "unit": "%"}, {"measurement": "activity at 10 µM", "setting": "ErbB4", "result": 73, "unit": "%"}, {"measurement": "activity at 10 µM", "setting": "Tie2", "result": 109, "unit": "%"}, {"measurement": "activity at 10 µM", "setting": "Ret", "result": 82, "unit": "%"}, {"measurement": "activity at 10 µM", "setting": "PAK2", "result": 89, "unit": "%"}, {"measurement": "activity at 10 µM", "setting": "CDK2/cyclinE", "result": 117, "unit": "%"}, {"measurement": "activity at 10 µM", "setting": "Fyn", "result": 103, "unit": "%"}, {"measurement": "activity at 10 µM", "setting": "MINK", "result": 91, "unit": "%"}, {"measurement": "activity at 10 µM", "setting": "Ax1", "result": 100, "unit": "%"}, {"measurement": "activity at 10 µM", "setting": "SAPK2a", "result": 62, "unit": "%"}, {"measurement": "activity at 10 µM", "setting": "EphB4", "result": 95, "unit": "%"}, {"measurement": "activity at 10 µM", "setting": "CDK3/cyclinE", "result": 107, "unit": "%"}, {"measurement": "activity at 10 µM", "setting": "PI 3-kinase-γ (PI3K-γ)", "result": 22, "unit": "%"}, {"measurement": "activity at 10 µM", "setting": "JNK1α1", "result": 85, "unit": "%"}, {"measurement": "activity at 10 µM", "setting": "CDK6/cyclinD3", "result": 87, "unit": "%"}, {"measurement": "activity at 10 µM", "setting": "PKCα", "result": 92, "unit": "%"}, {"measurement": "activity at 10 µM", "setting": "PKCζ", "result": 96, "unit": "%"}, {"measurement": "activity at 10 µM", "setting": "PI3K-α", "result": 30, "unit": "%"}]}]}
